# Source: patent publication US20080312317A1 (Eisai R&D Management Co., Ltd., priority 2007, published 2008)
# Key:
# Format in all cases: cell-based
# [1] = tested on: WiDr human colon cancer cell; assay: Proliferation inhibitory effect, Cell Titer-Glo viability assay, WiDr; conditions: 72 h, 3 days culture with compound, luciferase viability readout, read-out: IC50, concentration for 50% inhibition of cell growth
# Description: (§1) WiDr human colon cancer cells cultured in RPMI1640 medium containing 10% fetal bovine serum, penicillin (100 unit/ml) and streptomycin (100 μg/ml) (SIGMA product) were seeded into a 96-well plate by 2×10^3 cells/90 μl/well. After culturing the cells overnight in a CO2 incubator, 10 μl of the compound (P15) which is diluted in series in 3-folds was added in each well above, and cultured for another 3 days. Then, 50 μl of Cell Titer-Glo Luminescent Cell Viability Assay (Promega product) was added thereto, cells were shaken for 2 minutes and allowed to stand for 15 minutes to allow reaction. After completing the reaction, luciferase activity was measured using the luminometer. The thus obtained measurement value was given as an index for the number of living cells in each well.
# The same experiment as in Test Example 1 was carried out, except that the compound (P15) was changed to the compound (P16). The concentration (IC50 value) of the compound (P16) required for 50% inhibition of WiDr human colon cancer cell growth was determined.
# [2] = tested on: MDA-MB231 human breast cancer cell; assay: Proliferation inhibitory effect, Cell Titer-Glo viability assay, MDA-MB231; conditions: MDA-MB-231, 72 h, 3 days culture with compound, luciferase viability readout, read-out: IC50, concentration for 50% inhibition of cell growth
# Description: as §1
# (§2) The same experiment as above was carried out, except that WiDr human colon cancer cell was changed to U937 human leukemia cell, KP4 human pancreatic cancer cell, MIApaca2 human pancreatic cancer cell, MDA-MB231 human breast cancer cell, MDA-MB435 human breast cancer cell, DU145 human prostate cancer cell, PC9 human lung cancer cell and OVCAR3 human ovarian cancer, respectively. The concentration (IC50 values) of the compound (P15) required for 50% inhibition of each cancer cell was determined. […]
# [3] = tested on: MDA-MB435 human breast cancer cell; assay: Proliferation inhibitory effect, Cell Titer-Glo viability assay, MDA-MB435; conditions: MDA-MB-435, 72 h, 3 days culture with compound, luciferase viability readout, read-out: IC50, concentration for 50% inhibition of cell growth
# Description: as §1, §2
# [4] = tested on: PC9 human lung cancer cell; assay: Proliferation inhibitory effect, Cell Titer-Glo viability assay, PC9; conditions: 72 h, 3 days culture with compound, luciferase viability readout, read-out: IC50, concentration for 50% inhibition of cell growth
# Description: as §1, §2
# [5] = tested on: MIApaca2 human pancreatic cancer cell; assay: Proliferation inhibitory effect, Cell Titer-Glo viability assay, MIApaca2; conditions: MIA PaCa-2, 72 h, 3 days culture with compound, luciferase viability readout, read-out: IC50, concentration for 50% inhibition of cell growth
# Description: as §1, §2
# U937 human leukemia cell = assay: Proliferation inhibitory effect, Cell Titer-Glo viability assay, U937; conditions: U-937, 72 h, 3 days culture with compound, luciferase viability readout, read-out: IC50, concentration for 50% inhibition of cell growth
# Description: as §1, §2
# [6] = tested on: OVCAR3 human ovarian cancer; assay: Proliferation inhibitory effect, Cell Titer-Glo viability assay, OVCAR3; conditions: OVCAR-3, 72 h, 3 days culture with compound, luciferase viability readout, read-out: IC50, concentration for 50% inhibition of cell growth
# Description: as §1, §2
# [7] = tested on: KP4 human pancreatic cancer cell; assay: Proliferation inhibitory effect, Cell Titer-Glo viability assay, KP4; conditions: 72 h, 3 days culture with compound, luciferase viability readout, read-out: IC50, concentration for 50% inhibition of cell growth
# Description: as §1, §2
# [8] = tested on: DU145 human prostate cancer cell; assay: Proliferation inhibitory effect, Cell Titer-Glo viability assay, DU145; conditions: DU-145, 72 h, 3 days culture with compound, luciferase viability readout, read-out: IC50, concentration for 50% inhibition of cell growth
# Description: as §1, §2
SMILES,IC50 [1] [nM],IC50 [2] [nM],IC50 [3] [nM],IC50 [4] [nM],IC50 [5] [nM],IC50 (U937 human leukemia cell) [nM],IC50 [6] [nM],IC50 [7] [nM],IC50 [8] [nM]
"CC[C@H](O)[C@@H](C)[C@H]1O[C@@H]1C[C@@](C)(O)/C=C/C=C(\C)[C@H]1NC(=O)CCCCCC(OC(C)=O)/C=C/[C@@H]1C (stereo partly drawn) [Compound P15, (2S,3S,4E)-2-((1E,3E,5R)-5-hydroxy-6-{(2R,3R)-3-[(1R,2S)-2-hydroxy-1-methylbutyl]oxiran-2-yl}-1,5-dimethylhexa-1,3-dien-1-yl)-3-methyl-12-oxoazacyclododec-4-en-6-yl acetate]",570,470,1700,1400,500,550,430,1300,2300
CC[C@H](O)[C@@H](C)[C@H]1O[C@@H]1C[C@H](C)/C=C/C=C(\C)[C@H]1NC(=O)CCCCCC(OC(C)=O)/C=C/[C@@H]1C (stereo partly drawn) [Compound P16],290,130,380,240,140,140,97,300,510
